Measurements reported in patent publication US4092420A, “Novel soft N-chloroamino alcohol derivatives exhibiting antibacterial activity” (INTERx Research Corporation, priority 1977, dated 1978).

What was measured:
T. mentagrophytes = assay: Minimal inhibitory concentration (MIC), Example V; assay type: cell-based; details: Trichophyton mentagrophytes
Description: (§1) MINIMAL INHIBITORY CONCENTRATION OF 2-AMINO-2-METHYL-1-PROPYL
(§2) ^a Minimal inhibitory concentration expressed in parts per million
(§3) sequence inhibited the test organism at the higher concentrations.
(§4) THE ANTIBACTERIAL SCREEN - EXAMPLE V

A. niger = assay: Minimal inhibitory concentration (MIC), Example V; assay type: cell-based; details: Aspergillus niger
Description: as §1, §2, §3, §4

E. coli [1] = assay: Minimal inhibitory concentration (MIC), Example V; assay type: cell-based; details: Escherichia coli
Description: as §1, §2, §3, §4

K. pneumoniae = assay: Contact germicidal efficiency (sterilization time); assay type: cell-based, Klebsiella pneumoniae
Procedure: CONTACT GERMICIDAL EFFICIENCY OF N-CHLORAMINES AS A FUNCTION
(§5) ^a Time intervals screened 0.5, 1, 2, 3, 4 and 5 minutes.
(§6) ^a Time intervals screened 0.5, 1, 2, 3, 4, 5, 6, 7, 8, 9 and 10
(§7) ^a Time intervals screened 0.5, 1, 2, 3, 4, and 5 minutes.
(§8) ^b Time intervals screened 0.5, 1, 2, 3, 4, 5, 6, 7, 8, 9 and 10
(§9) Immediately preceding the screen, the compound is weighed and diluted with a buffer or other solvent to give the final concentration desired. The buffer or solvent chosen depends on the conditions of the screen and could be one of the following: 0.1 M NaOAc, pH 4.6; 0.1 M NaH2 PO4, pH 7.0; 0.1 M Na2 B4 O7, pH 8.8; 35% methanol in one of the aforementioned buffers; 10% Triton × 100 in buffer, etc.
(§10) The positive chlorine concentration of the test solution is then determined iodometrically.
(§11) Media used for the Screen are Nutrient Broth, BBL# 11479 and Nutrient Agar, BBL# 11472 prepared according to label directions. The broth is dispensed in 75 ml amounts of flasks for overnight cultures and in 5 ml amounts to culture tubes for subculturing during the Screen. Agar plates are prepared as usual.
Overnight cultures are prepared by inoculating from stock cultures into the 75 ml flasks of nutrient broth and incubating for 15 hours at 37° C.
The iodometrically characterized test solution is dispensed in 5 ml amounts to seven small stoppered flasks. The organisms are screened one at a time as follows:
A 0.2 ml portion of the overnight culture is inoculated into 5 ml of 0.9% NaCl for use in controls. A 0.2 ml portion of the overnight culture is inoculated into a flask containing 5 ml of the test solution, an automatic timer is simultaneously triggered and the solution mixed. At time intervals of 30 seconds, 1, 2, 3, 4, 5, 6, 7, 8, 9, and 10 minutes a loopful of the inoculated solution is subcultured into 5 ml of sterile nutrient broth and mixed by a Vortex Genie Mixer, the high dilution serving to stop the action of the compound. At the end of the ten minute screen, the entire procedure is repeated for each of the remaining six organisms. All of the subculture tubes are incubated at 37° C and checked for signs of growth by turbidity at 24 hr., 48 hr., 3, 5, and 7 days. The earliest subculture time at which no growth is present in the subculture tube is considered the endpoint and is recorded as that time, e.g., 7 minutes.
The test solution is prepared and characterized as above but is made up at twice the concentration desired. The solution is diluted 1:1 with Rehydrated Tissue Culture Dessicated Horse Serum, Difco #5357-72 and dispensed in a 5 ml amount to a small flask. The mixture is incubated at Room Temperature for 30 minutes to allow denaturation of the compound by the serum and then screened as above.
The 5 ml mixture of serum and test solution are prepared in sequence to allow as close to 30 minutes as possible before the beginning of the screen of each organism.
(§12) Bacteria: Staphylococcus aureas Smith (or 209), Escherichia coli AB 1932-1, 1100/B22 and Vogel, Streptococcus pyogenes C203 Salmonella typhimurium 14028, Bacillus subtilis 6051-1, Klebsiella pneumoniae 10031, Pseudomonas aeruginosa 9027, Bordetella bronchiseptica 4617 and Staphylococcus epidermidis 12228.

E. coli [2] = assay: Contact germicidal efficiency (sterilization time); assay type: cell-based, Escherichia coli; details: Example Y, pH 4.6, in presence of horse serum, 468 ppm (80 PPMCl+)
Procedure: CONTACT GERMICIDAL EFFICIENCY OF
as §5, §6, §7, §8, §9, §10
as §11, with “usual. […]” for “usual.”
A 0.2 ml portion of the overnight culture is inoculated into 5 ml of 0.9% NaCl for use in controls. […] The earliest subculture time at which no growth is present in the subculture tube is considered the endpoint and is recorded as that time, e.g., 7 minutes. […]

S. aureus = assay: Minimal inhibitory concentration (MIC), Example V; assay type: cell-based; details: Staphylococcus aureus
Procedure: as §4
(§13) THE ANTIBACTERIAL SCREEN - EXAMPLES W - Z (Autotiter IV)
(§14) (a) Compounds. All compounds to be screened are weighed (approx. 10 mg) on the day preceding the test date. Each compound is solubilized on the day of assay in appropriate solvent and diluted automatically in the Autotiter IV with distilled water (buffer can be employed here also).
as §12
(§15) (c) Inocula. Prior to utilization in the Autotiter IV, all bacteria are cultured for 18-20 hr. (37° C) in tryptose phosphate broth (TP), except, S. pyogenes C203, which is cultured in Brain Heart Infusion broth plus 10% normal horse serum. Immediately prior to testing, each culture is adjusted to an optical density of 0.10 (650 nm), employing a Bausch & Lomb Spectronic 20, and diluted subsequently into double strength medium to approximately 2 × 10^5 viable organisms per ml.
(§16) 1. An automated injector system dispenses 0.05 ml of diluent (sterile H2 O or buffer) to all cups of the autotiter trays from rows 2 through 7.
(§17) 2. The loops (for sequential dilutions of the compounds are moistened by immersion into 70% ethyl alcohol. After removal of excess alcohol by blotting, the loops are moved to the first row of cups in the autotray containing 0.10 ml of the compound to be diluted and tested (usually, this initial concentration is 500 to 1000 mcg/ml, but can be varied upward or downward). The loops are lowered and sequentially transfer the diluted solutions of the compound through row 7.
(§18) Immediately after each dilution is made, each cup is automatically inoculated with 0.05 ml of the appropriate test organism. This inoculation derives from a second injector system containing the organism in double-strength medium. The total operation consists of the automatic dilution of a single compound in each of 8 rows of the Autotiter try.
(§19) After these operations, we reverse the tray and a second compound is diluted over the other one-half of the tray and inoculated, subsequently, with 8 organisms. Thus, for each Autotiter Tray, two compounds are screened against 8 different organisms at dilutions ranging from 1:2 to 1:128.
(§20) (e) Incubation. The inoculated Autotiter trays are incubated at 37° C for 18 - 20 hr. At the end of this period, each tray is examined for the presence or absence of growth (turbidity). The lowest concentration of the compound inhibiting growth is recorded as the minimal inhibitory concentration (MIC).

P. aeruginosa = assay: Minimal inhibitory concentration (MIC), Example V; assay type: cell-based; details: Pseudomonas aeruginosa
Procedure: as §4, §13, §14, §12, §15, §16, §17, §18, §19, §20

CC(C)(COC(=O)C(C)(C)C)NCl [IV c, 2-N-Chloroamino-2-methyl-1-propyl 2,2-dimethylproprionate] was tested, and the MIC (T. mentagrophytes) was over 250 µg/mL, the MIC (A. niger) was over 250 µg/mL and the MIC (E. coli [1]) was over 250 µg/mL. For the same compound, the “Sterilization Time” value (K. pneumoniae; Example X, pH 4.6, no horse serum, IV c 404 ppm (69 PPMCl+), IV g 489 ppm (143 PPMCl+)) was 0.5 min, the “Sterilization Time” value (K. pneumoniae; Example X, pH 7.0, no horse serum, IV c 1886 ppm (323 PPMCl+), IV g 409 ppm (120 PPMCl+)) was 2 min and the “Sterilization Time” value (K. pneumoniae; Example X, pH 9.3, no horse serum, IV c 1704 ppm (292 PPMCl+), IV g 319 ppm (94 PPMCl+)) was 2 min. For the same compound, the “Sterilization Time” value (K. pneumoniae; Example Y, pH 4.6, in presence of horse serum, 468 ppm (80 PPMCl+)) was over 10 min, the “Sterilization Time” value (E. coli [2]) was over 10 min and the MIC (S. aureus) was over 250 µg/mL. It also gave an MIC (P. aeruginosa) of over 250 µg/mL.
